Assay results from patent US5169854A, “N-substituted-furylalkenyl hydroxamic acid and N-hydroxyurea compounds having lipoxygenase inhibitory activity” (Abbott Laboratories, priority 1992, dated 1992).

Columns and labels:
Leukotriene Biosynthesis = experiment: Inhibition of leukotriene biosynthesis in vivo after oral administration, rat peritoneal anaphylaxis model; details: oral gavage 100 μmol/kg, one hour prior to antigen challenge, peritoneal fluid leukotrienes 15 min after challenge
Experimental: Inhibition of the biosynthesis of leuktrienes in vivo after oral administration of compound was determined using a rat peritoneal anaphylaxis model in a similar manner as that described by Young and coworkers (Young, P. R.; Dyer, R. D.; Carter, G. W. Fed. Proc., Fed. Am. Soc. Exp. Biol. 1985 (44), 1185). In this model rats were injected intraperitoneally (ip) with rabbit antibody to bovine serum albumin (BSA) and three hours later injected ip with BSA to induce an antgen-antibody response. Rats were sacrificed 15 minutes after this challenge and the peritoneal fluids were collected and analyzed for leukotriene levels. Test compounds were administered by gavage one hour prior to the antigen challenge. Percent inhibition values were determined by comparing the treatment group to the mean of the control group.

5-Lipoxygenase = biological target: T1, 5-Lipoxygenase (Homo sapiens, UniProt P09917); experiment: Inhibition of calcium ionophore A23187-induced LTB4 biosynthesis in human whole blood (5-Lipoxygenase Inhibitory Activity); format: cell-based; set-up: endogenous in cells; host or cells: human heparinized whole blood (blood leukocytes)
T1 sequence (P09917 1-674): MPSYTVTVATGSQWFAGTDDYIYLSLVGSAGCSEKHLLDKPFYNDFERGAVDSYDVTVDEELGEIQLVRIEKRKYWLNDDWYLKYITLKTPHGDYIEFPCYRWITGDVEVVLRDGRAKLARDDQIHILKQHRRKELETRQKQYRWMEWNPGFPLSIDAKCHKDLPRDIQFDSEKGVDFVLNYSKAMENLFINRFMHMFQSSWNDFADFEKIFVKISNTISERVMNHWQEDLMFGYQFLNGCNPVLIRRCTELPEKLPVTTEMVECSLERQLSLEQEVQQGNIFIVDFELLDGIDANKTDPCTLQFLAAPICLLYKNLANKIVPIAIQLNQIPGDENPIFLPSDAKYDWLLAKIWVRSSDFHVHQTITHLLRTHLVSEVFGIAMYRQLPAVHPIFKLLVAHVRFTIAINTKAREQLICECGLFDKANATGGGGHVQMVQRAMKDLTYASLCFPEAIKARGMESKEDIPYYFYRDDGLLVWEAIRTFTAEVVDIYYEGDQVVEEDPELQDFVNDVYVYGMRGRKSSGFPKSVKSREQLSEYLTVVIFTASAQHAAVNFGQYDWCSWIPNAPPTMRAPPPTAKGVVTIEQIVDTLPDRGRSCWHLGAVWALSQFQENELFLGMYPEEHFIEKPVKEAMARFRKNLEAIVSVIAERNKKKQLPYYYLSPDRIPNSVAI
Experimental: Inhibition of leukotriene biosynthesis was evaluated in an assay, involving calcium ionophore-induced LTB4 biosynthesis expressed human whole blood. Human heparinized whole blood was preincubated with test compounds or vehicle for 15 min at 37° C. followed by calcium ionophore A23187 challenge (final concentration of 8.3 μM) and the reaction terminated after 30 min by adding two volumes of methanol containing prostaglandin B2 as an internal recovery standard. The methanol extract was analyzed for LTB4 using a commercially available radioimmunoassay.

Compound	Percent Inhibition of Leukotriene Biosynthesis at an Oral Dose of 100 μmol/kg (Leukotriene Biosynthesis)	IC50 (5-Lipoxygenase; human heparinized whole blood, LTB4 by radioimmunoassay, A23187 8.3 μM, 15 min preincubation at 37° C.)	5-Lipoxygenase Inhibitory Activity, percent inhibition (5-Lipoxygenase; at 0.39 (10^-6 M), human whole blood LTB4)
CC(/C=C/c1ccc(Oc2ccc(F)cc2)o1)N(O)C(N)=O (stereo not shown) [Example 1, E-N-[4-(5-(4-Fluorophenoxy)-2-furanyl)but-3-en-2-yl]-N-hydroxyurea]	98%	160 nM	–
Z-N-[4-(5-(4 -fluorophenoxy)-2-furanyl)-2-fluorobut-3-en-2-yl]-N-hydroxyurea [Example 3]	–	–	77%
NC(=O)N(O)CC=Cc1ccc(Oc2ccccc2)o1 [Example 2, N-hydroxy-N-[3-(5-phenoxyfur-2-yl)prop-2-enyl]urea]	99%	–	–
